A value given as a limit tells only on which side of the number the result lay.

`OC(CCl)COc1cccc(-c2nc(C(F)(F)F)c[nH]2)c1` (centres undefined): the melting point (commonly the temperature of the solid-liquid transition) was 181 to 183 °C.

On to `CC(=O)c1c2c(c(C)[nH]c1=O)CC(c1ccccn1)CC2` (centres undefined), for which the melting point is 254 to 256 °C.

`CC(C)N(CCN1C(=O)/C(=N/NC(=O)NCc2ccccc2)c2ccccc21)C(C)C`: the melting point was 164 to 165 °C.

`ON=C(c1ccc(Cl)cc1)c1cccc2nc(N[C@@H]3CCc4ccccc43)ccc12` returned a melting point of 194 °C.

With `Cc1c(F)c(Br)cc2c1c(=O)c(C(=O)O)cn2C1CC1`, the melting point fell in the range of 237 to 239 °C.

As for `CCOC(=O)C1=C2Nc3ccccc3N2CC1`, the melting point is 269 to 271 °C.

With `CCn1nc(OCCCc2ccc(OCCOC)cc2Oc2ncc(C(F)(F)F)cc2Cl)cc1CCC(=O)O`, the melting point was 101 to 103 °C.

Compound `CCn1cc(C(=O)O)c(=O)cc1-c1ccc(N(C)C)cc1` gave a melting point of 258 to 259 °C.

Regarding `COc1ccc(-c2cc(=Nc3c(C)cc(C)cc3C)n(C)c3nncn23)cc1OC`, the melting point fell in the range of 125 to 130 °C.

Compound `Cc1noc2ccc(Oc3ncccc3C(=O)NCc3ccc(C(C)(C)O)cc3)cc12` displayed a melting point of 128 to 130 °C.

For `COC(=O)c1cc(Cl)c(C)c(N)c1Cl`, the melting point fell in the range of 53 to 55 °C.

For the compound `CC(C)N[C@H](C(=O)NCCCC(c1ccc(F)cc1)c1ccc(F)cc1)C(C)C`, the melting point is 72 to 80 °C.

The compound `COC(OC)c1ncc[nH]1` showed a melting point of 122 °C.

`C[C@@H](Sc1ccc(O)cc1)C(=O)O` yielded a melting point of 138 to 139 °C.

`COc1ccccc1C=Cc1ccccc1`: the melting point was 69 to 70 °C.

In turn, `c1ccc(-c2noc(-c3cccc4ccccc34)n2)nc1` had a melting point of 132 to 136 °C.

`O=C(O)CCCCc1ccn2cncc2c1` gave a melting point of 158 to 161 °C.

Take `BrCCCCOc1ccc(OCCCCBr)cc1`: the melting point fell in the range of 89 to 91 °C.

For the compound `CCC(C)CNc1nc2ccc(Sc3nnc4n3N=C(c3ccc(F)cc3)CC4)cc2s1` (centres undefined), the melting point is 220 °C.

In turn, `Cc1sc(S(=O)(=O)NC(C)(C)CO)cc1NC(=O)c1cnn2c(C(F)(F)F)cc(-c3ccc(C(F)(F)F)cc3)nc12` gave a melting point of 225 °C.

`CSCC(=O)C(Cc1cccc2ccccc12)NC(=O)C(CC(C)C)NC(=O)OCc1ccccc1` (centres undefined) had a melting point of 77 to 80 °C.

The compound `CC(O)(c1nc2cc(S(=O)(=O)c3ccccc3)ccc2s1)C(F)(F)F` (centres undefined) registered a melting point of 126 to 128 °C.

`C=C(c1cc(OC)c(O)c2c(Cc3ccccc3)cccc12)C(C)(C)C(=O)O` returned a melting point of 162 °C.

`CCc1ncc(CCCOc2c(C)cc(C#N)cc2C)s1` yielded a melting point of 52 to 53 °C.

Regarding `Cc1nc(N2CCN(CC3CC3(F)F)C2=O)sc1C(=O)NCc1cncs1` (centres undefined), the melting point is 182 to 184 °C.

Turning to `CN(c1ccncc1)c1csc2ncccc12`, the melting point was in the range of 143 to 145 °C.

In turn, `COC(=O)C(=O)c1ccc(OCCOc2ccc(Cl)cc2)cc1` registered a melting point of 103 to 105 °C.

As to `CCSCCOC(=O)C(=O)Nc1nc(-c2ccccc2)cs1`, the melting point is 148 to 149 °C.

As to `O=C(SSCCSSC(=O)N1CCOCC1)N1CCOCC1`, the melting point lay within 178 to 179 °C.

Compound `CC(C)Nc1cc(Cl)nc(Cl)n1` showed a melting point of 69 to 70 °C.

Consider `CCOC(=O)/C=C/c1ccc(OCCCOCCOC)cc1Oc1ncc(C(F)(F)F)cc1Cl`, for which the melting point was 65 to 67 °C.

Compound `CCOC(=O)N1CCN(c2ccc(Br)cn2)CC1` came in with a melting point of 68 °C.

Take `CC1(N)CN(c2nc3c(cc2F)c(=O)c(C(=O)O)cn3C2CC2)C1`: the melting point fell in the range of 285 to 287 °C.

`COc1ccc(-c2[nH]nc3c2C(=O)c2c(NC(=O)NNC(=O)c4ccccc4N)cccc2-3)cc1` had a melting point of 257 °C.

Consider `O=[N+]([O-])c1ccc(-c2cccs2)cc1-c1cccs1`, for which the melting point was in the range of 111 to 112 °C.

Turning to `CCc1nc2c(cnn2CC)c(NC2CCOCC2)c1CNC(=O)c1cccc(C(=O)O)c1`, the melting point was in the range of 207 to 209 °C.

`COc1ccc(CCC(=O)C2CCC3C4CCc5cc(C(=O)O)ccc5C4CCC23C)cc1` (centres undefined): the melting point lay in the range of 178 to 179 °C.

Compound `COc1cc2c(cc1OC)[C@@H]1CCCC[C@@H]1N=C2c1ccc(N(S(=O)(=O)c2ccc([N+](=O)[O-])cc2)S(=O)(=O)c2ccc([N+](=O)[O-])cc2)cc1` (racemic) gave a melting point of 234 °C.

On to `[N-]=[N+]=NC(=O)c1ccc(-c2ccc(C(F)(F)F)cc2)s1`, for which the melting point turned out to be 97 °C.

On to `CC(C)(O)Cn1c(CO)nc2c(N)nc3cc(-c4ccc(Cl)c(Cl)c4)cnc3c21`, for which the melting point is 254 to 256 °C.

On to `Cc1ccc(S(=O)(=O)Oc2ccc(Cl)c3c2C(=O)c2cnccc2C3=O)cc1`, for which the melting point lay within 193 to 195 °C.

In turn, `CCOC(=O)c1cn(C2CC2)c2cc(-c3cc(C(F)(F)F)nc(C(F)(F)F)c3)c(F)cc2c1=O` registered a melting point of 239 to 241 °C.

In the case of `OC1(c2ccc(C(F)(F)F)cc2)CCNCC1`, the melting point lay in the range of 130 to 132 °C.

For `NS(=O)(=O)c1cccc(NC(=O)c2cnn3ccc(-c4ccc(Cl)cc4)nc23)c1`, the melting point came to 345 °C.

Take `CCCn1c(-c2ccc(C#C[Si](C(C)C)(C(C)C)C(C)C)cc2)nc2cc(C#N)c(C#N)cc21`: the melting point lay in the range of 242 to 243 °C.

In the case of `CCCCn1nc(CCc2cccs2)nc1Cc1ccc(-c2ccccc2-c2nnn[nH]2)nc1`, the melting point lay in the range of 116 to 118 °C.

The compound `N#Cc1cc2c(cc1F)OCC21C(=O)N(Cc2ccccn2)c2ccccc21` (centres undefined) registered a melting point of 108 to 109 °C.

With `CC(C)OC(=O)Nc1cccc(O)c1`, the melting point lay within 75 to 77 °C.

Take `Cc1cc(C(=O)CC(O)(c2cc(Cl)cc(Cl)c2)C(F)(F)F)ccc1C(=O)O` (centres undefined): the melting point fell in the range of 114 to 115 °C.

Take `Oc1ccc(-c2nc(-c3cccs3)c[nH]2)cc1Br`: the melting point lay in the range of 125 to 130 °C.

The compound `COc1ccccc1-c1ccc(C(=O)O)cc1C` gave a melting point of 160 to 162 °C.

In turn, `COc1ccc2[nH]cc(C3CCC4(CC3)OCCO4)c2c1` gave a melting point of 153 to 155 °C.

For the compound `COc1ccc(N2CCN(C(=O)[C@H](Cc3ccccc3)NC(=O)Nc3n[nH]c(=S)s3)CC2)cc1`, the melting point is 201 to 203 °C.

`O=S(=O)(c1ccccc1)c1c[nH]c2ncccc12` came in with a melting point of more than 250 °C.

For `CC(C)(NC(=O)C(CS)Cc1ccccc1)C(=O)OCc1ccccc1` (centres undefined), the melting point lay within 53 to 56 °C.

`CCOCCOc1cc(C(C)C)c(NC(=O)CN2CCN(CCSc3nc4ccccc4o3)CC2)c(C(C)C)c1` registered a melting point of 92 to 95 °C.

The compound `COCCNC(N)=Nc1ccccc1N1CCOCC1` showed a melting point of 125 to 128 °C.

With `CSc1ccc(COc2cccc(C(=O)Nc3ccc(C#N)cc3)c2)cc1`, the melting point was in the range of 147 to 148 °C.

Turning to `CCCn1cc2c(C3C(=O)Nc4ccc(S(=O)(=O)N(C)C)cc43)nc(Cl)nc2n1` (centres undefined), the melting point was more than 300 °C.

Take `O=c1sc2ccccc2n1CO`: the melting point fell in the range of 101 to 103 °C.

On to `NS(=O)(=O)c1cc(OC(F)F)ccc1OC(F)F`, for which the melting point fell in the range of 73 to 74 °C.

For the compound `CC1Sc2c(C(=O)O)c(=O)c3cc(F)c(N4CCC(O)C4)cc3n21` (centres undefined), the melting point lay in the range of 206 to 208 °C.

In turn, `OC1(c2ccc(Cl)c(C(F)(F)F)c2)CCN(CCCc2nnc3n2CCCCC3)CC1` had a melting point of 151 °C.

Regarding `CC(C)[C@H](O)[C@@H](CCCCOc1cc(F)ccc1F)n1nc[nH]c1=S` (racemic), the melting point is 97 °C.

Turning to `CCN(c1ccc(Cl)cc1)c1cc(NC)nc(C)n1`, the melting point was 133 to 136 °C.

The compound `COc1nc(C)nc2c1-c1ccc(Cl)cc1C(c1ccccc1F)=NC2` had a melting point of 188 to 189 °C.

Regarding `COc1cc2c(cc1OC)[C@@H]1CN(C)CC[C@@H]1N=C2c1ccc(NC(=O)C(C)(C)C)cc1` (relative stereo), the melting point was found to be 245 °C.

In turn, `CC(C)(C)c1ccc(C(=O)n2c3cc(O)c(O)cc3c3c(Br)cc(O)c(O)c32)cc1` came in with a melting point of more than 280 °C.

Consider `CCCc1cc(NCc2ccc3c(c2)OCO3)nc(SCC(N)=NO)n1`, for which the melting point was 145 to 147 °C.

As to `COc1ccc(Nc2ccc(F)cc2)cc1`, the melting point lay within 46 to 48 °C.

In turn, `CN(C)C(=O)c1ccc(-c2ccc(NC(=O)Nc3cccc(C(F)(F)F)c3)c(-c3n[nH]c(=O)[nH]3)c2)cc1` displayed a melting point of 212 °C.

With `CC(=O)N1CC(CCN2CCC(c3ccccc3)CC2)c2cc3c(cc21)OCO3` (centres undefined), the melting point is 101 to 103 °C.

Consider `OCc1ccc2ccc3c4ccccc4ccc3c2c1`, for which the melting point lay in the range of 187 to 189 °C.

In turn, `COC(=O)C1CSc2ccc(Cl)cc2C1=O` (centres undefined) showed a melting point of 64 to 67 °C.

`CN1C(=O)c2cscc2N(C)c2ccccc21`: the melting point lay in the range of 101 to 102 °C.

For the compound `Cc1cncc(-c2ccc3c(=O)c(C(=O)O)cn(C4CC4)c3c2C)c1`, the melting point came out at 232 °C.

For the compound `Cc1ccc(C(O)CCCO)cc1` (centres undefined), the melting point was in the range of 43 to 47 °C.

Take `CNc1ccc2cc(Br)ccc2c1[N+](=O)[O-]`: the melting point lay in the range of 169 to 170 °C.

`COc1ccc(CCNC(=O)C(F)(F)F)c2c1NC(=O)C2=O` showed a melting point of 234 to 237 °C.

`COc1ccc2[nH]c(Sc3ccc(C=O)o3)nc2c1`: the melting point lay in the range of 94 to 99 °C.

`Nc1ncnc2c1ncn2Cc1oc2ccc(Br)cc2c(=O)c1-c1ccccc1` showed a melting point of 207 to 209 °C.

`CC(C)(C)NC(=O)NCc1ccc2c(c1)C(=O)N(C1CCC(=O)NC1=O)C2=O` (centres undefined) had a melting point of 202 to 204 °C.

For `CN1C(C(=O)Nc2ccccn2)=C(OC2OC(=O)c3ccccc32)c2ccccc2S1(=O)=O` (centres undefined), the melting point is 151 to 152 °C.

`N#Cc1c(Cl)c(C(F)(F)F)n(CCl)c1-c1ccc(Cl)cc1`: the melting point lay within 107 to 108 °C.

With `Cc1ccc(N)c(S)c1`, the melting point came out at 90 °C.

For `COC(=O)c1cc(C(=O)OC)cc(-c2cc(C(F)(F)F)cc(C(F)(F)F)c2)c1`, the melting point stood at 151 °C.

`CCOc1nc2ccccc2nc1NC(=O)N1CCN(c2cc(F)cc(F)c2)CC1` came in with a melting point of 146 to 148 °C.

`CN(C)C(=O)c1nn(-c2ccc(Cl)cc2)c(=O)c2c(N)scc12` yielded a melting point of 242 to 244 °C.

On to `Cc1cc(C)n(-c2nc(Nc3ccccc3)c3ccccc3n2)n1`, for which the melting point lay in the range of 262 to 265 °C.
